In patent US20060088579A1, “Transdermal drug delivery systems” (priority 2002, published 2006):
Values joined by “and” are separate entries in the source; they are usually repeats but may differ in a detail not shown here. Equal values may be shown once. Where a name gives a salt, the structure may show the parent alone. Each block holds one compound with its values, some of them ahead of it.

Tests used:
[1] = human, pH 7.4
[2] = Microemulsion phase diagrams, drug load and stability; type: physicochemical; conditions: O/W ME
Procedure: (i) Microemulsion Phase Diagrams. Four microemulsion (ME) systems were investigated to determine their ternary phase diagrams. All percentages are given as mass ratios.
Each of the three components for a system was titrated until a phase change between microemulsion and two phase mixture was observed. The boundary of this transition was recorded over the entire concentration range. A microemulsion was determined as a miscible, optically clear, stable solution. At the transition to a two phase regime, there is a clear clouding of the mixture as well as an eventual separation of the phases.
(ii) Preparation of Formulations. […] Drug flux was tested through ME system 1 at two selected concentrations, one in the W/O region, and the other in the O/W. The W/O system consisted of H2O:IPM:Tween 80 (10:52:38 w/w) while the O/W system contained H2O:Ethanol:IPM:Tween 80 (27:18:16:39 w/w). Both systems stably incorporated 10% w/w NMP and 10% w/w oleyl alcohol. […] The “water phase” sample consisted of the aqueous elements H2O:Ethanol:NMP (51:31:18) in the same relative proportions as if the organic components were removed.

[3] = IPM/NMP binary vehicle transport, 2% w/v lidocaine free base; type: in vitro ADME, human
From the text: (iii) Preparation of Skin Samples. […] (iv) Lidocaine Transport Experiments. […] J. […] (v) IPM/NMP Binary Vehicle Transport. […] (vi) Quantification of Lidocaine. […] (vii) Calculations.

[4] = LDA chaperoning: lidocaine and NMP flux with 1% LDA in IPM or NMP solvent; type: in vitro ADME, human; conditions: for NMP Fluxss: NMP solvent
From the text: (ii) Preparation of Skin Samples. […] (iii) Transport Experiments. […] J. […] (iv) LDA Chaperoning. […] The LDA's included octadecene, oleyl alcohol, and oleic acid. Similar solutions with NMP as the solvent were also obtained. […] (viii) Quantification of Transport. […] (ix) Calculations. […] D. Results

[5] = NMP partitioning between IPM and H2O; type: physicochemical; conditions: equilibrium mixture of H2O and IPM
Procedure: (vii) NMP Patitioning. Distilled water (2 ml), IPM (2 ml), and NMP (40 μl) were thoroughly vortexed in a glass tube. After equilibrating for 1 hour, the sample was centrifuged at 14,000 rpm for 6 minutes and separated into 2 phases. Samples of each phase were taken to determine NMP concentration by HPLC.
(viii) Quantification of Transport.

in vitro = conditions: human, pH 7.4
[6] = H2O/NMP binary vehicle transport
[7] = human, 24 h, 2 % w/v, pH 7.4

time at which steady state is reached in vitro [1]: about 4 hours
SMILES: C[C@]12CC[C@@H]3c4ccc(O)cc4CC[C@H]3[C@@H]1CC[C@@H]2O [Estradiol]

% IPM Uptake (maximum) ([2]; Tween 80/Ethanol ratio 1:1): 47 % (w/w) | % IPM Uptake (maximum) ([2]; Tween 80/Ethanol ratio 1:2): 8.3 % (w/w) | % IPM Uptake (maximum) ([2]; Tween 80/Ethanol ratio 2:1): 42 % (w/w) | % IPM Uptake (maximum) ([2]; Tween 80/Ethanol ratio 2:3): 8.1 % (w/w) | % IPM Uptake (maximum) ([2]; Tween 80/Ethanol ratio 4:1): 4.5 % (w/w) | % IPM Uptake (maximum) ([2]; Tween 80/Ethanol ratio 9:1): 1.6 % (w/w)
SMILES: CCCCCCCCCCCCCC(=O)OC(C)C [IPM, isopropyl myristate]

NMP 24 Hour Transport ([3]; 10% NMP (v/v)): 22.8 ± 3.7 µg | NMP Fluxss ([3]; 10% NMP (v/v)): 1.46 ± 0.9 μg cm^−2 hr^−1 | NMP 24 Hour Transport ([3]; 25% NMP (v/v)): 83.6 ± 5.7 µg | NMP Fluxss ([3]; 25% NMP (v/v)): 5.40 ± 0.49 μg cm^−2 hr^−1 | NMP 24 Hour Transport ([3]; 50% NMP (v/v)): 112 ± 5.3 µg | NMP Fluxss ([3]; 50% NMP (v/v)): 9.01 ± 0.84 μg cm^−2 hr^−1 | NMP 24 Hour Transport ([3]; 60% NMP (v/v)): 134 ± 13 µg | NMP Fluxss ([3]; 60% NMP (v/v)): 11.2 ± 1.2 μg cm^−2 hr^−1 | NMP 24 Hour Transport ([3]; 75% NMP (v/v)): 161 ± 6 µg | NMP Fluxss ([3]; 75% NMP (v/v)): 14.0 ± 0.9 μg cm^−2 hr^−1 | NMP 24 Hour Transport ([3]; 90% NMP (v/v)): 128 ± 1 µg | NMP Fluxss ([3]; 90% NMP (v/v)): 11.7 ± 0.1 μg cm^−2 hr^−1 | NMP 24 Hour Transport ([3]; 100% NMP (v/v)): 115 ± 0.2 µg | NMP Fluxss ([3]; 100% NMP (v/v)): 10.7 ± 0.2 μg cm^−2 hr^−1 | NMP Fluxss ([4]; 1% w/v isopropyl myristate): 15.8 ± 3.6 mg/cm^2/hr | NMP Fluxss ([4]; 1% w/v octadecene): 15.3 ± 1.2 mg/cm^2/hr | NMP Fluxss ([4]; 1% w/v oleic acid): 17.6 ± 2.0 mg/cm^2/hr | NMP Fluxss ([4]; 1% w/v oleyl alcohol): 20.7 ± 1.0 mg/cm^2/hr | NMP Fluxss ([4]; no LDA): 12.6±0.5 mg/cm^2/hr | flux of NMP through human skin ([4]; approximate value): ~10 mg/cm^2/hr | NMP partition in the water phase [5]: 98% | [IPM]/[H2O] partition coefficient of NMP [5]: 0.02±0.001 and 0.02 | Papp at 24 h, 10 % v/v (in vitro): 0.03 ×10⁻⁶ cm/s | Papp at 24 h, 20 % v/v (in vitro): 0.0178 ×10⁻⁶ cm/s | Papp at 24 h, 40 % v/v (in vitro): 0.0281 ×10⁻⁶ cm/s | Papp at 24 h, 50 % v/v (in vitro): 0.00861 ×10⁻⁶ cm/s | Papp at 24 h, 60 % v/v (in vitro): 0.0758 ×10⁻⁶ cm/s | Papp at 24 h, 80 % v/v (in vitro): 1.74 ×10⁻⁶ cm/s | Papp at 24 h, 90 % v/v (in vitro): 4.36 ×10⁻⁶ cm/s | Papp at 24 h, 100 % v/v (in vitro): 1.75 ×10⁻⁶ cm/s | NMP Fluxss ([6]; 10% NMP): 0.007 ± 0.007 μg/cm^2/hr | NMP Fluxss ([6]; 20% NMP): 0.008 ± 0.003 μg/cm^2/hr | NMP Fluxss ([6]; 40% NMP): 0.026 ± 0.021 μg/cm^2/hr | NMP Fluxss ([6]; 50% NMP): 0.010 ± 0.002 μg/cm^2/hr | NMP Fluxss ([6]; 60% NMP): 0.106 ± 0.058 μg/cm^2/hr | NMP Fluxss ([6]; 80% NMP): 3.26 ± 0.74 μg/cm^2/hr | NMP Fluxss ([6]; 90% NMP): 9.18 ± 0.53 μg/cm^2/hr | NMP Fluxss ([6]; 100% NMP): 12.6 ± 0.5 μg/cm^2/hr
SMILES: CN1CCCC1=O [NMP, n-methyl pyrrolidone]

Fluxss from H2O [7]: 2.44 ± 0.98 μg/cm^2/hr | Fluxss from H2O/NMP [7]: 6.31 ± 0.14 μg/cm^2/hr
SMILES: CCCNC(C)C(=O)Nc1ccccc1C (centres unmarked) [Prilocaine HCl]
